Laboratory results from US6667328B2, “Therapeutic agents for diabetes” (Fujimoto Brothers Co., Ltd., priority 2000, dated 2003).

Assays:
[1] = test system: fructose-induced hyperlipidemic rats; test: Hypotriglyceridemic activity in fructose-induced hyperlipidemic rats; type: in vivo, Sprague Dawley rats; conditions: fructose-loaded rats, 30 mg/kg p.o. once daily for 7 days; for inhibition in vivo at 30 mg/kg: Rattus norvegicus, po, 168 h, read-out: Reduction in Serum Triglyceride (%)
Experimental: The compounds were tested for a hypotriglyceridemic activity in fructose-induced hyperlipidemic rats in accordance with the method described in Nippon Yakurigaku Zasshi, 92 (3), 175-180 (1988). Sprague Dawley rats were grouped by the ranking method of body weight. Then, instead of drinking water, rats were given 75% fructose aqueous ad libitum for one week, thereby, resulting in the state of hypertriglyceridemia. The compounds of the present invention, suspended in 3% Arabic gum aqueous solution, and a dose of 30 mg/kg was orally administrated once daily for 7 days during the fructose-loading period. The control group of rats were given 3% Arabic gum aqueous solution only. Two hours later of the final administration, the rats were bled from the abdominal aorta to measure serum triglycerides and total cholesterol. The reduction rate (%) of each measurement compared to the control groups was calculated according to the equation indicated in EXAMPLE 4.

[2] = test system: Genetically diabetic db/db mice (C57BL/ksJ Jcl-dbm db/db mice); test: Blood sugar lowering actions in genetically diabetic mice; type: in vivo; conditions: serum glucose vs control group
Experimental: (§1) Genetically diabetic db/db mice (C57BL/ksJ Jcl-dbm db/db mice) older than 8 weeks were grouped depend on their blood sugar levels of the prior measurements in order to divide groups with almost equal mean value of the sugar level. The respective groups of db/db mice were designates as the following groups: the group given the compound of the present invention, the group of troglitazone, and the group given no administrating group. For the compounds of the present invention, two doses: 75 mg/kg and 150 mg/kg, and for troglitazone, a dose of 150 mg/kg were individually given to the mice as a forced oral administration once daily for 14 days successively. These agents were suspended in 3.0% Arabic gum solution for administration. To the control group, only the same volume of 3.0% Arabic gum solution was administered. On the next day of the final administration, each mouse was […] for sampling. The blood samples were subject to serum separation. The glucose level in the serum of each group was measured. Then, a reduction rate in a glucose level (%) compared to the control group was calculated with mean value of each group according to the equation below. […] [formula]

[3] = test system: mice; test: Acute toxicity tests with single dosing in mice; type: in vivo; conditions: 2000 mg/kg single oral dose, observed for 2 weeks
Experimental: The compounds (the compound 1 and 10) of the present invention were singly orally administered to each mouse at a dose of 2000 mg/kg.

[4] = test system: db/db mice; test: Antihyperlipidemic activities in genetically diabetic mice; type: in vivo; conditions: 150 mg/kg p.o. once daily for 14 days, serum
Experimental: as §1
In the same way as described in EXAMPLE 4, db/db mice were grouped in the manner by which the respective groups had almost equivalent mean blood sugar levels. The compounds 1, 3, 13, 21 and 22 of the present invention, suspended in 3.0% Arabic gum solution, were orally administrated, with a dose of 150 mg/kg, once daily for successive 14 days. The control group of mice were given the vehicle solution only. On the next day of the final administration, each mouse was bled for sampling. The blood was subjected for serum separation, and then subjected to measurements of β-lipoproteins, free fatty acids, and triglycerides. The reduction rate (%) of each measurement compared to the control group was calculated by the equation indicated in EXAMPLE 4. […] (Table 9).

[5] = test system: 3T3-L1 preadipocyte cells; test: Differentiation-inducing actions on adipose cells (oil red-O staining, absorbance at 490 nm); type: cell-based; conditions: 3T3-L1, oil red-O extract absorbance at 490 nm, ratio to control group (1.0)
Experimental: The cloned cell line 3T3-L1 of the preadipocyte cells at the 9-20th generation were used. The cell suspension at a concentration of 2×10^4 cells/ml was added 500 μl/well in a 24 well microplate. Then, the microplates were cultured at 37° C. in the atmosphere of 5% CO2 for 4 days with D-MEM containing 5% inactivated fetal calf serum (hereinafter abbreviated as “FCS D-MEM”). Next, the following procedures were conducted.
(1) To test compound of this invention, 500 μl/well of the following solutions was added to each well:
1) test compound-containing medium (T-MEM) in which the test compound in a stock solution (30 mM in DMSO) was diluted with FCS D-MEM containing 0.1 μM dexamethazone and 100 ng/ml insulin (hereinafter abbreviated as DEX-Ins-FCS D-MEM);
2) FCS-D-MEM; 3) DEX-Ins-FCS D-MEM; 4) 0.1% DMSO-containing DEX-Ins-FCS D-MEM for me control wells.
(2) After above additions were done, the culture plates were incubated at 37° C. in 5% CO2 for 3 days. Then, the same operations as in the procedure (1) were repeated for exchange of the culture medium. The culture plates were incubated at 37° C. in 5% CO2 for further 3 days.
(3) After incubation, the culture medium was removed from the culture plates. Then, the FCS D-MEM was added to the FCS D-MEM-wells, and next the medium prepared for containing 100 ng/ml of insulin with the FCS D-MEM (hereinafter abbreviated as “Ins-FCS D-MEM”) was added at 500 μl/well to the T-MEM wells and DEX-Ins-FCS D-MEM wells. All culture plates were incubated for 4 days.
(4) After incubation, the culture medium was removed. For cell fixation, 500 μl/well of 10% formalin in neutral buffer was added, and left at the room temperature for approximately 20 minutes or longer. Then the formalin solution was removed, and 60% 2-propanol solution was added at 500 μl/well, then quickly removed, and the oil red-O staining solution was added at 250 μl/well. The culture plates were sealed with plate seals, and left at room temperature for 30 minutes or longer. After incubation, the staining solution was removed, and the 60% 2-propanol solution was added at 500 μl/well, and quickly removed. The cells were rinsed with water a few times, and then water drops were flipped away. A cell-lysis buffer was added at 500 μl/well, and the culture plates were sealed with plate seals, and left at 37° C. for 1 hour to extract the pigments. Next, 300 μl/well of the extract solution was transferred at a 96 well micro-plates, and then the absorbance of each extract was measured at wavelength of 490 nm.
The absorbance ratios of the respective test compounds-groups to the control group, the mean absorbance of which was designated as 1.0, are shown in Table 8. Based on the judgement that the absorbance higher than that of the control group indicates a greater differentiation-inducing activity of the test compound, the compounds of the present invention were determined to have the activity to induce differentiation of preadipocytes to adipocytes, resulting in elevating insulin sensitivity of organs. Thereby, this activity would confer the efficacy in the therapy of diabetes.

[6] = test system: Salmonella typhimurium TA100 and TA98; test: Mutagenesis tests (reverse mutation test); type: cell-based; conditions: TA100 and TA98, direct method (−s9mix) and metabolically activated method (+s9mix)
Experimental: In order to examine mutagenecity of the compound 1, the reverse mutation test was conducted with use of Salmonella typhimurium TA100 and TA98.

[7] = test system: high cholesterol-fed hamsters; test: Lipid lowering effects in high cholesterol-fed hamsters; type: in vivo, Syrian hamsters; conditions: serum, negative = elevation
Text: According to the method described in Jpn Pharmacol Ther, 23 (suppl 4), s1047-1053 (1995), male Syrian hamstars were fed for 3 weeks with 1% cholesterol 10% coconut oil (W/W) supplemented diet, and thereby, became to be hypercholesterolemia models. Prior to administration of the compounds, under ether anesthesia, the hamsters were bled from the orbital vein for measurement of serum total cholesterol. They were grouped in the manner by which the respective groups had almost equal serum total cholesterol levels. The normal group of hamsters were fed ordinary diet. Thereafter, the compound 1 and bezafibrate were orally administered once daily at doses of 15 (for only compound 1), 30, 60 and 120 mg/kg for 7 days. Even during the treatment period, cholesterol loading was continued. Four hours later of the final administration, the hamsters were bled by cardiac puncture. The total cholesterol and triglycerides in the serum obtained were measured by the enzymatic method. The results are shown in Table 11 (the negative values mean elevation rates.)
The actions of the compounds of the present invention at a dose of 15 mg/kg were measured in the same method as described in EXAMPLE 8.

[8] = 75 mg/kg oral once daily for 14 days
[9] = 150 mg/kg oral once daily for 14 days
[10] = 15 mg/kg oral once daily for 7 days
[11] = 30 mg/kg oral once daily for 7 days
[12] = 60 mg/kg oral once daily for 7 days
[13] = 120 mg/kg oral once daily for 7 days

N#CN=C1NC(=O)/C(=C\c2ccc(C=Cc3ccccc3)cc2)S1 [Compound 1, 2-(N-Cyanoimino)-5-[(E)-4-stylylbenzylidene]thiazolidin-4-one]
Reduction in Serum Triglyceride (%) [1]: 47%
Reduction in Blood Glucose (%) [2, 8]: 31%
Reduction in Blood Glucose (%) [2, 9]: 37%
Survival after single oral dose [3]: all 3 mice given the respective compounds survived
Reduction Rate (%) Free Fatty Acids [4]: 39%
Reduction Rate (%) Triglycerides [4]: 69%
Reduction Rate (%) β-lipoproteins [4]: 51%
Absorbance Ratio [5]: 1.46
Mutagenicity (number of reversely mutated colonies) [6]: non-mutagenic
Reduction Rate (%) Total cholesterol [7, 10]: 26%
Reduction Rate (%) Triglyceride [7, 10]: 60%
Reduction Rate (%) Total cholesterol [7, 11]: 25%
Reduction Rate (%) Triglyceride [7, 11]: 62%
Reduction Rate (%) Total cholesterol [7, 12]: 29%
Reduction Rate (%) Triglyceride [7, 12]: 69%
Reduction Rate (%) Total cholesterol [7, 13]: 41%
Reduction Rate (%) Triglyceride [7, 13]: 80%

N#CN=C1NC(=O)C(=Cc2ccc(Oc3ccccc3)cc2)S1 [Compound 22, 2-(N-Cyanoimino)-5-(4-phenoxybenzylidene)thiazolidin-4-one]
inhibition in vivo at 30 mg/kg [1]: 65%
Reduction in Blood Glucose (%) [2, 8]: 16%
Reduction in Blood Glucose (%) [2, 9]: 34%
Reduction Rate (%) Free Fatty Acids [4]: 41%
Reduction Rate (%) Triglycerides [4]: 65%
Reduction Rate (%) β-lipoproteins [4]: 56%
Absorbance Ratio [5]: 1.73

N#CN=C1NC(=O)C(=Cc2ccc(OCCc3ccccc3)cc2)S1 [Compound 10, 2-(N-Cyanoimino)-5-(4-phenethyloxybenzylidene)thiazolidin-4-one]
inhibition in vivo at 30 mg/kg [1]: 39%
Survival after single oral dose [3]: all 3 mice given the respective compounds survived
Absorbance Ratio [5]: 2.12

N#CN=C1NC(=O)C(=Cc2ccc(COCc3ccccc3)cc2)S1 [Compound 3, 2-(N-Cyanoimino)-5-[4-(benzyloxymethyl)benzylidene]thiazolidin-4-one]
inhibition in vivo at 30 mg/kg [1]: 64%
Reduction in Blood Glucose (%) [2, 8]: 24%
Reduction in Blood Glucose (%) [2, 9]: 49%
Reduction Rate (%) Free Fatty Acids [4]: 58%
Reduction Rate (%) Triglycerides [4]: 85%
Reduction Rate (%) β-lipoproteins [4]: 65%
Absorbance Ratio [5]: 1.48
